Results published in patent US9273058B2 (BRISTOL-MYERS SQUIBB COMPANY, priority 2013, dated 2016).
Read-outs that look alike come from different tables or passages of the source.

What was measured:
[1] = target: CK1ε (Homo sapiens, UniProt P49674); assay: CK1ε kinase assay (Caliper LabChip electrophoretic separation of fluoresceinated peptide substrate and product); type: biochemical; conditions: 200 pM CK1ε, 50 μM ATP, 1.5 μM peptide, 22 hours at room temperature
How it was run: (§1)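 Kinase reactions ran 22 h at room temperature, were stopped with EDTA, and phosphorylated product was separated electrophoretically from unphosphorylated fluoresceinated peptide. Compounds were tested at eleven concentrations from 10 mM DMSO stocks. IC50 by non-linear regression.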

[2] = target: CK1δ (Homo sapiens, UniProt P48730); assay: CK1δ kinase assay (Caliper LabChip electrophoretic separation of fluoresceinated peptide substrate and product); type: biochemical; conditions: 200 pM CK1δ, 50 μM ATP, 1.5 μM peptide, 22 hours at room temperature
How it was run: as §1

Sequence of CK1ε (P49674 whole entry): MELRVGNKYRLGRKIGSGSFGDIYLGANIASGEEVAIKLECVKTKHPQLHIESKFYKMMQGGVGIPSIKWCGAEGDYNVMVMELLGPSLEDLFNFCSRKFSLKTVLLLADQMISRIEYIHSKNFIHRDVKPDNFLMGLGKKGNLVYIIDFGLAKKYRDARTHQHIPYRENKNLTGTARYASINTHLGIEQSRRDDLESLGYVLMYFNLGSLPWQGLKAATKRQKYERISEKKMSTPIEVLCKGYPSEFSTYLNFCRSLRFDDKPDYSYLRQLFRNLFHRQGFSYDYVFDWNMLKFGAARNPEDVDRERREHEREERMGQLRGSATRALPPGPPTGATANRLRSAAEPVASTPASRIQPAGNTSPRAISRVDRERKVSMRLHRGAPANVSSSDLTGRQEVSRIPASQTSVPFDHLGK
Sequence of CK1δ (P48730 whole entry): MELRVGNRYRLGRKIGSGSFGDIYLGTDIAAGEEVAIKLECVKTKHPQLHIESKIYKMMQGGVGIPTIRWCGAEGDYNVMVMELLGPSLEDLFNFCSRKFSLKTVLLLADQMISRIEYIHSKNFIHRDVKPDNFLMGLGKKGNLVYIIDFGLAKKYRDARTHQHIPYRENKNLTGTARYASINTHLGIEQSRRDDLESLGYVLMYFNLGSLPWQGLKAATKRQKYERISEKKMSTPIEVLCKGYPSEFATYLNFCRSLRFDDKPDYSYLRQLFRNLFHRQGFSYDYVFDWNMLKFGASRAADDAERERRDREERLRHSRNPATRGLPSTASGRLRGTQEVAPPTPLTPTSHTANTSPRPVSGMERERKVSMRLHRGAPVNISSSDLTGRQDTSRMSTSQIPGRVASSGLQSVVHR

SMILES	IC50 ([1]; read-out: CK1ε IC50 range) [nM]	IC50 ([2]; read-out: CK1δ IC50 range) [nM]	IC50 ([1]; read-out: CK1ε) [nM]	IC50 ([2]; read-out: CK1δ) [nM]
NC(=O)c1c(-c2cccc(Cl)c2)nn2c1CN(C(=O)NC13CCC(CC1)CC3)CC2 [Compound A79, N^5-(Bicyclo[2.2.2]octan-1-yl)-2-(3-chlorophenyl)-6,7-dihydropyrazolo[1,5-a]pyrazine-3,5(4H)-dicarboxamide]	0.01 to 10	0.01 to 10		
CC1(C)CC(NC(=O)N2CCn3nc(-c4ccc(F)c(Cl)c4)c(C(N)=O)c3C2)C1 [Compound 285, 2-(3-Chloro-4-fluorophenyl)-N^5-(3,3-dimethylcyclobutyl)-6,7-dihydropyrazolo[1,5-a]pyrazine-3,5(4H)-dicarboxamide]	0.01 to 10	0.01 to 10		
CC1(NC(=O)N2CCn3nc(-c4ccc(F)c(Cl)c4)c(C(N)=O)c3C2)CC(C(F)F)C1 (single isomer, unassigned) [Compound 259, 2-(3-Chloro-4-fluorophenyl)-N^5-(3-(difluoromethyl)-1-methylcyclobutyl)-6,7-dihydropyrazolo[1,5-a]pyrazine-3,5(4H)-dicarboxamide]	0.01 to 10	0.01 to 10		
CC(C)(C)NC(=O)N1Cc2c(C(N)=O)c(-c3ccc(Cl)c(Cl)c3)nn2C(C(C)(C)O)C1 (stereo not shown) [Compound A37, N^5-(tert-Butyl)-2-(3,4-dichlorophenyl)-7-(2-hydroxypropan-2-yl)-6,7-dihydropyrazolo[1,5-a]pyrazine-3,5(4H)-dicarboxamide]	0.01 to 10	10 to 100		
CC(C)(C)NC(=O)N1Cc2c(C(N)=O)c(-c3ccc(Cl)c(Cl)c3)nn2C(C(C)(C)O)C1 (stereo not shown) [Compound A38, N^5-(tert-Butyl)-2-(3,4-dichlorophenyl)-7-(2-hydroxypropan-2-yl)-6,7-dihydropyrazolo[1,5-a]pyrazine-3,5(4H)-dicarboxamide]	0.01 to 10	0.01 to 10		
CC1(NC(=O)N2Cc3c(C(N)=O)c(-c4ccc(F)c(Cl)c4)nn3[C@H]3COC[C@H]32)CC(F)(F)C1 [Compound 354, (5aS,8aR)-2-(3-Chloro-4-fluorophenyl)-N^5-(3,3-difluoro-1-methylcyclobutyl)-5a,6,8,8a-tetrahydrofuro[3,4-e]pyrazolo [1,5-a]pyrazine-3,5(4H)-dicarboxamide]	0.01 to 10	0.01 to 10		
CC1Cn2nc(-c3ccc(F)c(Cl)c3)c(C(N)=O)c2CN1C(=O)NC(C)(C)C (single isomer, unassigned) [Compound 341, N^5-(tert-Butyl)-2-(3-chloro-4-fluorophenyl)-6-methyl-6,7-dihydropyrazolo[1,5-a]pyrazine-3,5(4H)-dicarboxamide]	0.01 to 10	10 to 100		
N#CCC1(NC(=O)N2CCn3nc(-c4ccc(F)c(Cl)c4)c(C(N)=O)c3C2)CCC1 [Compound 220, 2-(3-Chloro-4-fluorophenyl)-N^5-(1-(cyanomethyl)cyclobutyl)-6,7-dihydro pyrazolo[1,5-a]pyrazine-3,5(4H)-dicarboxamide]	0.01 to 10	0.01 to 10		
N#Cc1ccc(C2(NC(=O)N3CCn4nc(-c5ccc(F)c(Cl)c5)c(C(N)=O)c4C3)CC(F)(F)C2)cc1 [Compound 314, 2-(3-Chloro-4-fluorophenyl)-N^5-(1-(4-cyanophenyl)-3,3-difluorocyclobutyl)-6,7-dihydropyrazolo[1,5-a]pyrazine-3,5(4H)-dicarboxamide]	0.01 to 10	0.01 to 10		
NC(=O)c1c(-c2ccc(Cl)c(Cl)c2)nn2c1CN(C(=O)NC1CC(F)(F)C1)C[C@H]2CF [Compound A29, (S)-2-(3,4-dichlorophenyl)-N^5-(3,3-difluorocyclobutyl)-7-(fluoromethyl)-6,7-dihydropyrazolo[1,5-a] pyrazine-3,5(4H)-dicarboxamide]	0.01 to 10	0.01 to 10		
NC(=O)c1c(-c2ccc(F)c(Cl)c2)nn2c1CN(C(=O)NC1CC(F)(F)C1)CC21CC1 [Compound A133, 2′-(3-Chloro-4-fluorophenyl)-N^5′-(3,3-difluorocyclobutyl)-4′H-spiro[cyclopropane-1,7′-pyrazolo[1,5-a]pyrazine]-3′,5′(6′H)-dicarboxamide]	0.01 to 10	0.01 to 10		
NC(=O)c1c(-c2ccc(F)c(Cl)c2)nn2c1CN(C(=O)NC13CCC(c4ccccc4)(CC1)CC3)CC2 [Compound A53, 2-(3-Chloro-4-fluorophenyl)-N^5-(4-phenylbicyclo[2.2.2]octan-1-yl)-6,7-dihydropyrazolo[1,5-a]pyrazine-3,5(4H)-dicarboxamide]	0.01 to 10	0.01 to 10		
N#CC1(NC(=O)N2CCn3nc(-c4ccc(Cl)c(Cl)c4)c(C(N)=O)c3C2)CCOC1 (stereo not shown) [compound 335]	0.01 to 10	0.01 to 10		
COCCC1CN(C(=O)NC(C)(C)C)Cc2c(C(N)=O)c(-c3ccc(F)c(Cl)c3)nn21 (single isomer, unassigned) [Compound A100, N^5-(tert-Butyl)-2-(3-chloro-4-fluorophenyl)-7-(2-methoxyethyl)-6,7-dihydropyrazolo[1,5-a]pyrazine-3,5(4H)-dicarboxamide]	0.01 to 10	10 to 100		
NC(=O)c1c(-c2ccc(Cl)c(Cl)c2)nn2c1CN(C(=O)NC1(CF)CC(F)(F)C1)CC2 [compound 303]	0.01 to 10	0.01 to 10		
NC(=O)c1c(-c2ccc(Cl)c(Cl)c2)nn2c1CN(C(=O)N[C@H]1C[C@H](OC(F)(F)F)C1)CC2 [compound 265]	0.01 to 10	0.01 to 10		
NC(=O)c1c(-c2ccc(Cl)c(Cl)c2)nn2c1CN(C(=O)NC1(c3cccnc3)CC(F)(F)C1)CC2 [Compound 313, 2-(3,4-Dichlorophenyl)-N^5-(3,3-difluoro-1-(pyridin-3-yl)cyclobutyl)-6,7-dihydropyrazolo[1,5-a]pyrazine-3,5(4H)-dicarboxamide]	0.01 to 10	0.01 to 10		
CC(C)NC(=O)N1CCn2nc(-c3cccc(F)c3)c(C(N)=O)c2C1 [Compound 5, 2-(3-Fluorophenyl)-N^5-isopropyl-6,7-dihydropyrazolo[1,5-a]pyrazine-3,5(4H)-dicarboxamide]	10 to 100	10 to 100		
NC(=O)c1c(-c2cccc(Cl)c2)nn2c1CN(C(=O)NCC1CCC(F)(F)CC1)CC2 [Compound 180, 2-(3-Chlorophenyl)-N^5-((4,4-difluorocyclohexyl)methyl)-6,7-dihydropyrazolo[1,5-a]pyrazine-3,5(4H)-dicarboxamide]	0.01 to 10	0.01 to 10		
NC(=O)c1c(-c2cccc(Cl)c2)nn2c1CN(C(=O)NC1(C(F)F)CC(F)(F)C1)CC2 [Compound 306, 2-(3-Chlorophenyl)-N^5-(1-(difluoromethyl)-3,3-difluorocyclobutyl)-6,7-dihydropyrazolo[1,5-a] pyrazine-3,5(4H)-dicarboxamide]	0.01 to 10	0.01 to 10		
N#Cc1ccc(NC(=O)N2CCn3nc(-c4cccc(F)c4)c(C(N)=O)c3C2)cc1 [Compound 61, N^5-(4-Cyanophenyl)-2-(3-fluorophenyl)-6,7-dihydropyrazolo[1,5-a]pyrazine-3,5(4H)-dicarboxamide]	0.01 to 10	0.01 to 10	5	2.6
CC12CC3CC(C)(C1)CC(NC(=O)N1CCn4nc(-c5ccc(F)c(Cl)c5)c(C(N)=O)c4C1)(C3)C2 [Compound A68, 2-(3-Chloro-4-fluorophenyl)-N^5-((1r,3R,5S,7r)-3,5-dimethyladamantan-1-yl)-6,7-dihydropyrazolo[1,5-a]pyrazine-3,5(4H)-dicarboxamide]	0.01 to 10	0.01 to 10		
